Measured values: ChEMBL document CHEMBL1201862, “PubChem BioAssay data set” (2004)
Active and inactive are the calls of the source.

Columns and labels:
[1] = target: Glucose-6-phosphate 1-dehydrogenase (Homo sapiens, UniProt P11413); assay: inhibition of Homo sapiens G6PD, dose series – biochemical, fluorescence, selectivity assay for P. falciparum G6PD inhibitor project, dose response (AID 504792); assay type: functional
HeLa = assay: ATP-based viability loss in HeLa cells – cell-based, CellTiter-Glo luminescence, cherry-pick samples, cytotoxicity control for MITF activator project, dose response (AID 540259); assay type: functional; conditions: Homo sapiens
[2] = target: T1, Polyadenylate-binding protein 1 (Homo sapiens, UniProt P11940); assay: MLLE binding blockers, Cy5 peptide tracer – biochemical, fluorescence polarization, Cy5-PAM2 peptide, secondary, miRNA deadenylation inhibitor project, dose response (AID 602260); assay type: functional; conditions: read-out: IC50_Mean
[3] = target: T1, Polyadenylate-binding protein 1; assay: MLLE domain peptide-binding blockers, IC50 – biochemical, fluorescence polarization, FITC-PAM2 peptide, dose response (AID 602259); assay type: functional; conditions: read-out: IC50_Mean
Protein skinhead-1 = target: T2, Protein skinhead-1 (Caenorhabditis elegans, UniProt P34707); assay type: functional
T2 sequence (P34707 whole entry): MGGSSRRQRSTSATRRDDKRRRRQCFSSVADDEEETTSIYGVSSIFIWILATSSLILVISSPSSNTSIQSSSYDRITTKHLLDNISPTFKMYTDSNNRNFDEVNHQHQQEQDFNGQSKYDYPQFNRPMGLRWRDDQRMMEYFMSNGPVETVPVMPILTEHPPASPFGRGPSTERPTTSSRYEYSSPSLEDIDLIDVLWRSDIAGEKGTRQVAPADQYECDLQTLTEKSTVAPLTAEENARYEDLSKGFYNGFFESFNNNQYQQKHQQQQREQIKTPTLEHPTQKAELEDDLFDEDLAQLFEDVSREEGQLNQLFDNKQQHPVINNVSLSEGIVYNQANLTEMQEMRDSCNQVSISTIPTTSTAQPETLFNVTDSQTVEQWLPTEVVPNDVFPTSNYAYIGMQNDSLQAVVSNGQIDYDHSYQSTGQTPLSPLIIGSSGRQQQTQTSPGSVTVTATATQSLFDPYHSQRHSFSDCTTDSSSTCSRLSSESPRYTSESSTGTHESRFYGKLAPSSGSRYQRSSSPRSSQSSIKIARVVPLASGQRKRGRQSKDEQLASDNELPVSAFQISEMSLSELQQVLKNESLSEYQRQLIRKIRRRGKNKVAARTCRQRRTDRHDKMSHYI

[4] = target: T3, Rac GTPase-activating protein 1 (Homo sapiens, UniProt Q9H0H5); assay: blockers of MgcRacGAP-driven Rac1 GTP hydrolysis – biochemical, ADP Hunter fluorescence, primary and confirmatory, confirmation (AID 624330); assay type: functional
T3 sequence (Q9H0H5 whole entry): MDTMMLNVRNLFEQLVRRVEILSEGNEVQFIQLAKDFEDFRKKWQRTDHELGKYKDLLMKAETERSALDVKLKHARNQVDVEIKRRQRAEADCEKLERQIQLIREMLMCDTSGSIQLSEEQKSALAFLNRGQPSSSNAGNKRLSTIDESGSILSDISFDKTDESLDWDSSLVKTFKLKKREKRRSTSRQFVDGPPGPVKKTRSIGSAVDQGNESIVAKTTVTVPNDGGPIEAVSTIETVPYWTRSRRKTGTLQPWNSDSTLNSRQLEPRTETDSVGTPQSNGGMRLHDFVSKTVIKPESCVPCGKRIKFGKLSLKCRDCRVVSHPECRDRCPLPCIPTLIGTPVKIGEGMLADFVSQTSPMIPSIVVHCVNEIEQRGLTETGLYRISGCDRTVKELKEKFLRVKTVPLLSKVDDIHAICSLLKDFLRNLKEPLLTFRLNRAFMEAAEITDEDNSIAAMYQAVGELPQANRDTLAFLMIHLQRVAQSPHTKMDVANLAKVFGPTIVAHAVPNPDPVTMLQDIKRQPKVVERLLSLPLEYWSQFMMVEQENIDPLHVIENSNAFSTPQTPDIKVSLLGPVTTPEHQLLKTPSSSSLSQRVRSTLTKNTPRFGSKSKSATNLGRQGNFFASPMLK

[5] = target: T4, Apoptotic protease-activating factor 1 (Homo sapiens, UniProt O14727); assay type: functional
T4 sequence (O14727 whole entry): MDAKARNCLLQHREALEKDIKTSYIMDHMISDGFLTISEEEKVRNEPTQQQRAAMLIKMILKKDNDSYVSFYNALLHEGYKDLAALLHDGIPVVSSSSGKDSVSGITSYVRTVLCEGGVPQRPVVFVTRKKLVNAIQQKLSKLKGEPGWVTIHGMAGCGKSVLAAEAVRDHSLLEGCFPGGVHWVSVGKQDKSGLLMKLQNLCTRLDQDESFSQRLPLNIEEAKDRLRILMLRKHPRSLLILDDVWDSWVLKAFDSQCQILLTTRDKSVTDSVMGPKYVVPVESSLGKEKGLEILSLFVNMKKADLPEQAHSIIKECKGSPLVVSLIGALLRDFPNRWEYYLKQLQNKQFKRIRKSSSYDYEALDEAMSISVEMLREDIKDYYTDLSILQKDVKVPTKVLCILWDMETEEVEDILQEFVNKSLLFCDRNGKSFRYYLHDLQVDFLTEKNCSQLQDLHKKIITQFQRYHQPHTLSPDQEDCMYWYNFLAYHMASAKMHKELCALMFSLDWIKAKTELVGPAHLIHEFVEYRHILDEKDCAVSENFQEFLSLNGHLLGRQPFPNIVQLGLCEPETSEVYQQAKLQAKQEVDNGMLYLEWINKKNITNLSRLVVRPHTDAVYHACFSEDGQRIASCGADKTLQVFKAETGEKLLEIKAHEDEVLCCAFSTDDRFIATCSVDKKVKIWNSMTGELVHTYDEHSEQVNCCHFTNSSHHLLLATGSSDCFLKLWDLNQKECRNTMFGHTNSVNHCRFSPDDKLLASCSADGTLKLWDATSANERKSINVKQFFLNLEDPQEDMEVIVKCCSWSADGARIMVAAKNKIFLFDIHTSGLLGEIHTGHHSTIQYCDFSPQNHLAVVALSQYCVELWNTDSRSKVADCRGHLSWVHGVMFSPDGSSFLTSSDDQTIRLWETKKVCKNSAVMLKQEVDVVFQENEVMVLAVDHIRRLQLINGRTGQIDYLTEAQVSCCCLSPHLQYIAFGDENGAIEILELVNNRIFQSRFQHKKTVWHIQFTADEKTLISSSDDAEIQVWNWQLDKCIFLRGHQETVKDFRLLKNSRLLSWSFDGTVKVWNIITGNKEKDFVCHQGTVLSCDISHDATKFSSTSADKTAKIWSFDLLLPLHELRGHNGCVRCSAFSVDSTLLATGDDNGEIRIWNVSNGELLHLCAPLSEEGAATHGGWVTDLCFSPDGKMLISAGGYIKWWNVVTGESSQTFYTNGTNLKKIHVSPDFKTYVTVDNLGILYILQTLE

INS1 = assay: INS-1E survival protection against cytokine death – cell-based, luminescence, retest, dose response (AID 449756); assay type: functional; conditions: Rattus norvegicus;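 note: cell death triggered by IL-1 beta plus TNF-alpha plus IFN-gamma mixture; protective hits raise ATP signal compared with cytokine alone wells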
[6] = target: Beta-2 adrenergic receptor (Homo sapiens, UniProt P07550); assay: ADRB2 activation measured by internalization – cell-based, FAP fluorogen, flow cytometry, cherry pick 1, dose response (AID 588763); assay type: functional
BJ [7] = assay: BJ-TERT fibroblast viability loss – cell-based, RAS-independent, luminescence, dose response (AID 1933); assay type: functional; conditions: Homo sapiens
BJ [8] = assay: cells; assay type: functional, cell-based; conditions: Homo sapiens
BJ [9] = assay: BJ-TERT-LT-ST fibroblast viability loss – cell-based, RAS-independent, luminescence, dose response (AID 1935); assay type: functional; conditions: Homo sapiens;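 note: BJ fibroblasts immortalized with TERT plus LT and ST oncogenes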
[10] = DRD fibroblast viability loss – cell-based, non-viral oncogenic, luminescence, dose response (AID 1934); assay type: functional; conditions: Homo sapiens
[11] = Luminescence Cell-Based Dose Retest to Confirm Inhibitors of Cancer Stem Cells. [Related pubchem assays (depositor defined):AID2717, AID2721]; assay type: functional; conditions: Homo sapiens
BJ [12] = assay: growth inhibition of engineered Ras-driven BJ cells – cell-based, alamar blue fluorescence, cherrypicked samples, dose response (AID 2631); assay type: functional; conditions: Homo sapiens;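 note: confirmatory dose-response assay in RAS-dependent BJ fibroblasts engineered with TERT, LT and ST, with cytotoxicity read by fluorescence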
Cytochrome P450 2C19 = Cytochrome P450 2C19 (Homo sapiens, UniProt P33261); assay: Cytochrome panel assay with activity outcomes. Panel member name: p450-cyp2c19 Compounds with AC50 equal or less than 10 uM are considered active; assay type: functional; conditions: read-out: AC50
fMet-Leu-Phe receptor = target: T5, fMet-Leu-Phe receptor (Homo sapiens, UniProt P21462); assay: formyl peptide receptor binders – dose response (AID 519); assay type: functional
T5 sequence (P21462 whole entry): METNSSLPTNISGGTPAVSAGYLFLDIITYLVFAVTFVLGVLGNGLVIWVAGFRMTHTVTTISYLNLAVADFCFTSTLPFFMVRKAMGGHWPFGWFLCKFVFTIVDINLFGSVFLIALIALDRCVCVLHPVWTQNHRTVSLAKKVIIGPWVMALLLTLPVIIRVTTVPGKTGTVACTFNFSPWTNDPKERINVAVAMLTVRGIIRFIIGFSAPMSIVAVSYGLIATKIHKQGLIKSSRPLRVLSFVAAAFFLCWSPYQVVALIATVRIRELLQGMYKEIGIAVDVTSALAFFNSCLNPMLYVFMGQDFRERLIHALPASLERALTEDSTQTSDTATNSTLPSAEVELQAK

Cytochrome P450 2D6 = Cytochrome P450 2D6 (Homo sapiens, UniProt P10635);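 note: CYP2D6 member of a cytochrome P450 panel assay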
[13] = target: T6, Testis-specific serine/threonine-protein kinase 2 (Homo sapiens, UniProt Q96PF2); assay type: functional;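 note: part of the Navigating the Kinome panel, target entry STK22B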
T6 sequence (Q96PF2 whole entry): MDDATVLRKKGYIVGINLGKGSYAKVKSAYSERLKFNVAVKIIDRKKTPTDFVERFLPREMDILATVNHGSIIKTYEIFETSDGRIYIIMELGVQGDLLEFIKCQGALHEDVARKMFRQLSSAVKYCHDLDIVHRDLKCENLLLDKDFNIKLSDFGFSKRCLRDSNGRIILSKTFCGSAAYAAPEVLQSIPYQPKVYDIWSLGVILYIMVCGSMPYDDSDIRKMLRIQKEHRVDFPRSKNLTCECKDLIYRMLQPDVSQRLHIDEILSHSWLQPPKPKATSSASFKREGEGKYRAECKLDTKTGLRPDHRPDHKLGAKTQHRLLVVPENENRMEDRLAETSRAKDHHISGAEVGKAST

[14] = target: T7, Tyrosine-protein kinase JAK3 (Homo sapiens, UniProt P52333); assay type: functional
T7 sequence (P52333 whole entry): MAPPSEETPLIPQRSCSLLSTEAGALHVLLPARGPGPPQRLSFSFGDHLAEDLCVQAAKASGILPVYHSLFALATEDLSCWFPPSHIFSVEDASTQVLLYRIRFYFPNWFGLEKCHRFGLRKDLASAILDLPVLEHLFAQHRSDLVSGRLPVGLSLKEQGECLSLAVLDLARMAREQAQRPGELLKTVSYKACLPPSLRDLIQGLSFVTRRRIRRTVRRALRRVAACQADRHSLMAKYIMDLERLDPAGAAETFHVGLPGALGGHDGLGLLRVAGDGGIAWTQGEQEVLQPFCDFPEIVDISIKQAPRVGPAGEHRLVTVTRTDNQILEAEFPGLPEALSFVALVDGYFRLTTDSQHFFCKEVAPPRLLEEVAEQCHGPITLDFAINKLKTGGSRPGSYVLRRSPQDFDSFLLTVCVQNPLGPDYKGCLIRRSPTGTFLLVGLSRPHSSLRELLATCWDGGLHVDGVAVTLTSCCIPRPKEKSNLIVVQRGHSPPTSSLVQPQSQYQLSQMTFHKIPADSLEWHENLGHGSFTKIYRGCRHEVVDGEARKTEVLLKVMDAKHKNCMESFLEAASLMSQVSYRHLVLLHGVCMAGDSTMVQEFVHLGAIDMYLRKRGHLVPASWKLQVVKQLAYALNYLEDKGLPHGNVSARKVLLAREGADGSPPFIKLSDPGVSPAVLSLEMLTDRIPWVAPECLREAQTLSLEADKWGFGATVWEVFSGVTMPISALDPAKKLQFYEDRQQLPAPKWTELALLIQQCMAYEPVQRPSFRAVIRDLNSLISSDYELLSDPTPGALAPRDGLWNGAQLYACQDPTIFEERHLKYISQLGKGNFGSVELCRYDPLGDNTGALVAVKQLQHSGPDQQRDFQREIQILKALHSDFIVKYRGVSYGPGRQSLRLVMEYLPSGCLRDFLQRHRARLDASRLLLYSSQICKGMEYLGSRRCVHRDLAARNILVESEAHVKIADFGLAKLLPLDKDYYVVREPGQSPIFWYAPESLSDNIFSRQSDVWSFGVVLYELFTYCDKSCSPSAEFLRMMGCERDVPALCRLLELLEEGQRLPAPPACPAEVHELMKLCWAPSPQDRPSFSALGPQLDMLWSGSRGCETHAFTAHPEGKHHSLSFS

Chain of Beta-2 adrenergic receptor (P07550 whole entry): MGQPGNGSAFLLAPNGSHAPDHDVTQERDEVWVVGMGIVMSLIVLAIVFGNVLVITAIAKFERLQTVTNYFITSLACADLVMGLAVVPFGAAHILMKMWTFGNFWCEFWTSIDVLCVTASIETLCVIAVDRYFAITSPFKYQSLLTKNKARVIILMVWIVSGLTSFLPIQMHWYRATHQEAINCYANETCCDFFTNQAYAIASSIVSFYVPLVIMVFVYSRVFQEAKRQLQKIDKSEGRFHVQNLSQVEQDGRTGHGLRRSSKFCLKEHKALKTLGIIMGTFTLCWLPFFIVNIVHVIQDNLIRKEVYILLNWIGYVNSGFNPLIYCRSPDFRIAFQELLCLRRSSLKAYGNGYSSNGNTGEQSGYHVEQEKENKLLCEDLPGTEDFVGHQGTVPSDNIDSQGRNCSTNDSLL
T1 sequence (P11940 whole entry, the tested form may be a part): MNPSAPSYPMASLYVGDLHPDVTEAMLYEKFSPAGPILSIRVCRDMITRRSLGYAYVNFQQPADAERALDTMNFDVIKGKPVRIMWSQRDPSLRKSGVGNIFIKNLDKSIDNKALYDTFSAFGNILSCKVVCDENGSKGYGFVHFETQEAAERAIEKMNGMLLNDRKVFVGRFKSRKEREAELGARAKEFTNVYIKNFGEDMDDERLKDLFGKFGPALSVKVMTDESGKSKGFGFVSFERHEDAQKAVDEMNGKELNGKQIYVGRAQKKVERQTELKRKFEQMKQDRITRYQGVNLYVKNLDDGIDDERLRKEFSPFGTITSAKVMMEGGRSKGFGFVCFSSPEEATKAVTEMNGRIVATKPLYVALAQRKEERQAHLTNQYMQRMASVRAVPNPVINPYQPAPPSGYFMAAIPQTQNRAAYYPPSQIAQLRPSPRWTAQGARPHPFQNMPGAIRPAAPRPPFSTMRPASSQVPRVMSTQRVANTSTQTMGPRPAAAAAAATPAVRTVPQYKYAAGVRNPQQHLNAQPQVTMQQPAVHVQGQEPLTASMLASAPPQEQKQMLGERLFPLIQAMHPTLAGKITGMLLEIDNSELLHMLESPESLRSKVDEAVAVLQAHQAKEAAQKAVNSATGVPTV
Chain of Glucose-6-phosphate 1-dehydrogenase (P11413 whole entry): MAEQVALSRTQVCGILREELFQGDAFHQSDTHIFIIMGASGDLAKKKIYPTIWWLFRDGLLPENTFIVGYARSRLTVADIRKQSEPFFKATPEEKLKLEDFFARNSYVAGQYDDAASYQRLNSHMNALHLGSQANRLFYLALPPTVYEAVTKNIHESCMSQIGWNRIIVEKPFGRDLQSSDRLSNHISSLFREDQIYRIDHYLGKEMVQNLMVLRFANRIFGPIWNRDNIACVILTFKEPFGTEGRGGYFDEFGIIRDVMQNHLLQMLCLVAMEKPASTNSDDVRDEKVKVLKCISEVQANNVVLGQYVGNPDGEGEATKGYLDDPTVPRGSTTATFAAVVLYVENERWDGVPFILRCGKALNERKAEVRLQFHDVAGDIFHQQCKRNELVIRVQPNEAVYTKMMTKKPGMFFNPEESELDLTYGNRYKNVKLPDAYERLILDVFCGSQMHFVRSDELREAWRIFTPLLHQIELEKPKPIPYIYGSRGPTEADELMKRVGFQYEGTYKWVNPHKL
Chain of Cytochrome P450 2C19 (P33261 whole entry): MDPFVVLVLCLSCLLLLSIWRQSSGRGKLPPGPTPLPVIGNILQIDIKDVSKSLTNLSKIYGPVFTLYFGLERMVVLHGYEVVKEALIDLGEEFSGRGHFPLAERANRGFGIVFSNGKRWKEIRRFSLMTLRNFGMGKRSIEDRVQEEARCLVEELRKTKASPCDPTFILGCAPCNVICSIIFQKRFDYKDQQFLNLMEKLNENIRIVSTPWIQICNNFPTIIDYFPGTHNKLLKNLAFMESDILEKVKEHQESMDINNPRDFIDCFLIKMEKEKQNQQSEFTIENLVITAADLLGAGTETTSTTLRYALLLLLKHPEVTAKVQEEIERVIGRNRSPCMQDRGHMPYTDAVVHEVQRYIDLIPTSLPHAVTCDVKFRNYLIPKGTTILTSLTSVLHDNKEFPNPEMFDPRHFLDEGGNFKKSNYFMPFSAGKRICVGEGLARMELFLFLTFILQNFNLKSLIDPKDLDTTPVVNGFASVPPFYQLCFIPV
Chain of Cytochrome P450 2D6 (P10635 whole entry): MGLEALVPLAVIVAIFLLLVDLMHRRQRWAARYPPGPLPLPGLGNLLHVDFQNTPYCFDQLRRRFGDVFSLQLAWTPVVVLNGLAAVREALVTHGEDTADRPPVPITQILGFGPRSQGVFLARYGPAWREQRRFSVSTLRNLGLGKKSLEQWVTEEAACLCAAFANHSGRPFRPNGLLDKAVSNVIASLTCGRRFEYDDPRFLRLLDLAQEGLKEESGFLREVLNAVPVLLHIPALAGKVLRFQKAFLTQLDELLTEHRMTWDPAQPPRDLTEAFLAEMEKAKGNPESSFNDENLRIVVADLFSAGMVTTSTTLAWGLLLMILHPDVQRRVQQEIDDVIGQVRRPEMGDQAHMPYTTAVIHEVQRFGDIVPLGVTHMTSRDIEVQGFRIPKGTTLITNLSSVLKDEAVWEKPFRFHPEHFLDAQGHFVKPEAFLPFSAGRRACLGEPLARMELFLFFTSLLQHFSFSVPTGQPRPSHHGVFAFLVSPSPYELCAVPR

SMILES: COc1ccc(/C=C/c2nc3ccccc3n2Cc2ccc(OC)c(OC)c2)cc1
- IC50 [1]: > 80 µM (inactive)
- AC50 (HeLa): 37 µM (active)

SMILES: c1cc(CNc2ccc3c(c2)OCO3)ccn1
- IC50 [1]: > 80 µM (inactive)
- IC50 [2]: > 66 µM (inactive)
- IC50 [3]: 23.5 µM (inactive)
- IC50 (Protein skinhead-1): > 100 µM (inactive)
- IC50 [4]: 63.8 µM (active)

SMILES: CCCCCn1cc[n+](C2=C([N-]S(=O)(=O)c3ccc(Cl)cc3)C(=O)c3ccccc3C2=O)c1
- IC50 [5]: 30.2 µM (active)
- AC50 (INS1): 3.09 µM (active)

SMILES: Cc1cc(C)n2nc(C(=O)Nc3cccc(S(=O)(=O)N(C)c4ccccc4)c3)nc2n1
- EC50 [6]: 0.0342 µM (active)

SMILES: CN[C@H]1CCc2cc(OC)c(OC)c(OC)c2-c2ccc(N(C)CC(OC)OC)c(=O)cc21
- EC50 (BJ [7]): 3.42 µM (active)
- EC50 (BJ [8]): 21.4 µM (active)
- EC50 (BJ [9]): 2.98 µM (inconclusive)
- EC50 [10]: 2.86 µM (active)
- AC50 [11]: 1.86 µM (active)
- EC50 (BJ [12]): 0.578 µM (inconclusive)

SMILES: CCc1ccccc1N(C)S(=O)(=O)c1ccc2ncc(C(=O)O)c(O)c2c1
- EC50 [6]: 7.23 µM (active)

SMILES: O=C(O)C1CCCCC1C(=O)Nc1ccccc1Cl (stereo not drawn)
- AC50 (Cytochrome P450 2C19): 2.24 µM (inconclusive)
- Ki (fMet-Leu-Phe receptor): > 66.7 µM (inactive)
- AC50 (Cytochrome P450 2D6): inconclusive

SMILES: Cc1ccc(O)c(NC(=O)c2cccc(NC(=O)c3ccco3)c2)c1
- EC50 [6]: 0.132 µM (active)

SMILES: Cc1[nH]nc2ccc(-c3cncc(OCC(N)Cc4ccccc4)c3)cc12 (stereo not drawn)
- Ki [13]: > 1.58 µM (inactive)
- Ki [14]: > 1.58 µM (inactive)
